The source of these data is paper PMC8759726, “Click chemistry based synthesis, cytotoxic activity and molecular docking of novel triazole-thienopyrimidine hybrid glycosides targeting EGFR” (Journal of Enzyme Inhibition and Medicinal Chemistry, 2021).

For series [1], the system named is HCT-116 (human colorectal carcinoma) cell line. Nature of the series: MTT cytotoxicity assay, HCT-116. In kind it is cell-based. Particulars: 48 h incubation, mean ± SD. Here is the method: (§1) HCT-116 (human colorectal carcinoma) and MCF-7 (human breast adenocarcinoma) cell lines were purchased from the American Type Culture Collection (Rockville, MD) and maintained in Dulbecco’s Modified Eagle’s Medium (DMEM) supplemented with 10% heat-inactivated foetal bovine serum (FBS), 100 U ml^−1 penicillin, and 100 U ml^−1 streptomycin. The cells were grown at 37 °C in a humidified atmosphere of 5% CO2.
(§2) Cytotoxicity activity against HCT-116 and MCF-7 was estimated by the 3-[4,5-dimethyl-2-thiazolyl)-2,5-diphenyl-2H-tetrazolium bromide (MTT) assay. This test is based on MTT cleavage by mitochondrial dehydrogenases from viable cells[43]^,[44]. Cells were placed in a 96-well sterile microplate (5 × 10^4 cells well^−1) and incubated at 37 °C in serum-free media containing dimethyl sulphoxide (DMSO) and either a series of various concentrations of each compound or doxorubicin (positive control) for 48 h before the MTT assay. After incubation, the media were removed and 40 µl MTT (2.5 mg ml^−1) was added to each well. Incubation was resumed for an additional 4 h. The purple formazan dye crystals were solubilised with 200 µl DMSO. Absorbance was measured at 590 nm in a Spectra Max Paradigm Multi-Mode microplate reader (Molecular Devices, LLC, San Jose, CA). Relative cell viability was expressed as the mean percentage of viable cells compared to the untreated control cells.
(§3) All experiments were conducted in triplicate and repeated on three different days. All values were reported as mean ± SD. The IC50 values were determined by SPSS Inc. probit analysis (IBM Corp., Armonk, NY).

Series [2] relates to MCF-7 (human breast adenocarcinoma) cell line. Kind of series: MTT cytotoxicity assay, MCF-7. It is filed as cell-based. Conditions: 48 h incubation, mean ± SD. As to the method: as §1, §2, §3
Series [3] concerns the target mutant EGFR kinase type L858R (Homo sapiens, UniProt P00533, L858R). Nature of the series: In vitro kinase inhibition assay (Kinase-Glo Max luminescence). Conditions: IC50 (mean ± SEM) (µM) EGFR, mean of three values ± SEM.
Description: The master mixture (6 μl 5× kinase buffer + 1 μl ATP (500 μM)+1 μl 50× PTK substrate + 17 μl water) was prepared then, 25 μl to every well was added. Five microlitres of inhibitor solution of each well labelled as “Test Inhibitor” was added. However, for the “Positive Control” and “Blank”, 5 μl of the same solution without inhibitor (inhibitor buffer) was added. Three millilitres of 1× kinase buffer by mixing 600 μl of 5× kinase buffer with 2400 μl water was prepared. […] To the wells designated as “Blank”, 20 μl of 1× kinase buffer was added. EGFR enzyme on ice was thawed. Upon first thaw, briefly the tube containing enzyme was spun to recover full content of the tube. The amount of EGFR required for the assay and dilute enzyme to 1 ng/μl with 1× kinase buffer was calculated. Moreover, the remaining undiluted enzyme in aliquots was stored at –80 °C. The reaction was initiated by adding 20 μl of diluted EGFR enzyme to the wells designated “Positive Control” and “Test Inhibitor Control”, after that it was incubated at 30 °C for 40 min. After the 40 minutes’ reaction, 50 μl of Kinase-Glo Max reagent was added to each well and the plate was covered with aluminium foil and incubated at room temperature for 15 min. Luminescence was measured using the microplate reader.

Structures are written as SMILES.

Chain of mutant EGFR kinase type L858R (P00533 25-1210 L858R): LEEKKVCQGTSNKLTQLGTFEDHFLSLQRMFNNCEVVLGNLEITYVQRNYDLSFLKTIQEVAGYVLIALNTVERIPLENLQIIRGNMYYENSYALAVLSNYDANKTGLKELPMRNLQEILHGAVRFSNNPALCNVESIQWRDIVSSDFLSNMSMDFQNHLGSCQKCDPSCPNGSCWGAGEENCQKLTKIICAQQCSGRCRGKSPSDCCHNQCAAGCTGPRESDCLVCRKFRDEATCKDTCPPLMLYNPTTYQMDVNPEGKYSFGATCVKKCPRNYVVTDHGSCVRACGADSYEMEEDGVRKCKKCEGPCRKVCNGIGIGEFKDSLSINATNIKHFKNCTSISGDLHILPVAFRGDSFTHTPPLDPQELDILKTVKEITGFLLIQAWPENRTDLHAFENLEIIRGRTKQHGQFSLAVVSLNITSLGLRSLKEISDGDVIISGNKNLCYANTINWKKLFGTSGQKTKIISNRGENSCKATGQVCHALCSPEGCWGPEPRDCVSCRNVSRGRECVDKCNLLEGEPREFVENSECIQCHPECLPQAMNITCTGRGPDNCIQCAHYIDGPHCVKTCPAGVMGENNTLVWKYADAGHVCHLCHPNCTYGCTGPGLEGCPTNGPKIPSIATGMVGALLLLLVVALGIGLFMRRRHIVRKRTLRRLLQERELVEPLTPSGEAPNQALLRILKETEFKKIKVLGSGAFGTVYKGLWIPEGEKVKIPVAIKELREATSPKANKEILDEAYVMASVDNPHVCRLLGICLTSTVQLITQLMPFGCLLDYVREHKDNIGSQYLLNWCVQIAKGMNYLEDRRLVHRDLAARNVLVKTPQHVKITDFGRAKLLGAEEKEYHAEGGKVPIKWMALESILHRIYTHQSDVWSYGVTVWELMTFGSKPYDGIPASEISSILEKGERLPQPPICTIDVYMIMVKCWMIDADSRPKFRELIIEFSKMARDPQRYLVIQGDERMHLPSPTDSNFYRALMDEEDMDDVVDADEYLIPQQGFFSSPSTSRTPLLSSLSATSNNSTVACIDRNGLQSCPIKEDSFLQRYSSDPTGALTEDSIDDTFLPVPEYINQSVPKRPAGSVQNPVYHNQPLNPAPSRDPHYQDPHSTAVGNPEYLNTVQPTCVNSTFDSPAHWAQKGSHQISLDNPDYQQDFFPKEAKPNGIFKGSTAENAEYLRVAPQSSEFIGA

For `CC(=O)OC[C@H]1O[C@@H](n2cc(CSc3nc4sc5c(c4c(=O)n3N)CCC5)nn2)[C@H](OC(C)=O)[C@@H](OC(C)=O)[C@@H]1OC(C)=O` [Compound 4, 3-Amino-2-(((1-(2,3,4,6-tetra-O-acetyl-β-D-glucopyranosyl)-1H-1,2,3-triazol-4-yl)methyl)thio)-3,5,6,7-tetrahydro-4H-cyclopenta [4,5]thieno[2,3-d]pyrimidin-4-one], the melting point is 151 to 152 °C.

In turn, `CC(=O)OCC1OC(OCc2cn(CCSc3nc4sc5c(c4c(=O)n3N)CCC5)nn2)C(OC(C)=O)C(OC(C)=O)C1OC(C)=O` [Compound 13, 3-Amino-2-(ethylylthio)-{2-[4-({[2,3,4,6-tetra-O-acetyl-β-D-glucopyranosyl]oxy}methyl)-1H-1,2,3-triazol-1-yl]ethoxy}-3,5,6,7-tetrahydro-4H-cyclopenta[4,5]thieno[2,3-d] pyrimidin-4-one] came in with a melting point of 159 to 160 °C. In series [1] (Homo sapiens, HCT-116, 48 h), this compound displayed a half-inhibitory concentration (IC50) of 8.7 ± 1.6 µM. Also, in series [2] (Homo sapiens, MCF7, 48 h), the half-maximal inhibitory concentration (IC50) is 4.2 ± 0.5 µM.

`CC(=O)OC1COC(n2cc(CSc3nc4sc5c(c4c(=O)n3N)CCC5)nn2)C(OC(C)=O)C1OC(C)=O` [Compound 5, 3-Amino-2-(((1-(2,3,4-tri-O-acetyl-β-D-xyloopyranosyl)-1H-1,2,3-triazol-4-yl)methyl)thio)-3,5,6,7-tetrahydro-4H-cyclopenta[4,5]thieno[2,3-d]pyrimidin-4-one] had a melting point of 155 to 156 °C. In series [3], the concentration for half-maximal inhibition (IC50) stood at 0.13 µM. Besides, the IC50 in series [1] (Homo sapiens, HCT-116, 48 h) was 8.6 ± 0.9 µM. Also, in series [2] (Homo sapiens, MCF7, 48 h), the concentration for half-maximal inhibition (IC50) came out at 2.9 ± 0.4 µM.

Compound `CC(=O)OCC1OC(OCc2cn(CCSc3nc4sc5c(c4c(=O)n3N)CCC5)nn2)C(OC(C)=O)C(OC(C)=O)C1OC(C)=O` (stereo not drawn) [Compound 14] had a melting point of 156 to 157 °C. Further, in series [3], the IC50 was found to be 0.013 µM. Moreover, the concentration for half-maximal inhibition (IC50) in series [1] is 8.8 ± 1.1 µM. Also, the IC50 in series [2] is 4.5 ± 0.7 µM.

`CC(=O)OC1COC(OCc2cn(CCSc3nc4sc5c(c4c(=O)n3N)CCC5)nn2)C(OC(C)=O)C1OC(C)=O` (stereo not drawn) [Compound 15] showed a melting point of 153 to 154 °C. The compound further returned an IC50 in series [3] of 0.017 µM. Also, in series [1] (Homo sapiens, HCT-116, 48 h), 8.9 ± 1.1 µM corresponded to half-maximal inhibition (IC50). In series [2] (Homo sapiens, MCF7, 48 h), the 50% inhibitory concentration (IC50) amounted to 5 ± 0.9 µM.

As for `COc1cccc2c1C(=O)c1c(O)c3c(c(O)c1C2=O)C[C@@](O)(C(=O)CO)C[C@@H]3O[C@H]1C[C@H](N)[C@H](O)[C@H](C)O1` [Doxorubicin, reference compound], the half-maximal inhibitory concentration (IC50) in series [1] (Homo sapiens, HCT-116, 48 h) turned out to be 7.8 ± 0.7 µM; in series [2] (Homo sapiens, MCF7, 48 h) it was 6.7 ± 0.9 µM.

Compound `C#CCSc1nc2sc3c(c2c(=O)n1N)CCC3` [Compound 2, 3-Amino-2-(prop-2-yn-1-ylthio)-3,5,6,7-tetrahydro-4H-cyclopenta[4,5]thieno[2,3-d]pyrimidin-4-one] displayed a melting point of 181 to 182 °C. Also, the 50% inhibitory concentration (IC50) in series [3] came to 0.5 ± 1 µM. In addition, in series [1] (Homo sapiens, HCT-116, 48 h), the 50% inhibitory concentration (IC50) turned out to be 8.6 ± 1.9 µM. Further, the concentration for half-maximal inhibition (IC50) in series [2] (Homo sapiens, MCF7, 48 h) is 2.1 ± 0.3 µM.

`Nn1c(SCc2cn([C@@H]3OC[C@@H](O)[C@H](O)[C@H]3O)nn2)nc2sc3c(c2c1=O)CCC3` [Compound 7, 3-Amino-2-(((1-(β-D-xylopyranosyl)-1H-1,2,3-triazol-4-yl)methyl)thio)-3,5,6,7-tetrahydro-4H-cyclopenta[4,5]thieno[2,3-d]pyrimidin-4-one] gave a melting point of 189 to 190 °C. The same compound returned an IC50 in series [3] of 0.17 ± 0.43 µM. It took 8.7 ± 1.5 µM to reach half-maximal inhibition in series [1] (Homo sapiens, HCT-116, 48 h) (IC50). For the same compound, the half-inhibitory concentration (IC50) in series [2] (Homo sapiens, MCF7, 48 h) was found to be 4.3 ± 0.8 µM.

The compound `CC(=O)OCC1OC(OCc2cn(CCCCSc3nc4sc5c(c4c(=O)n3N)CCC5)nn2)C(OC(C)=O)C(OC(C)=O)C1OC(C)=O` (stereo not drawn) [Compound 16] returned a melting point of 163 to 164 °C. In series [1] (Homo sapiens, HCT-116, 48 h), this compound displayed a concentration for half-maximal inhibition (IC50) of 8.1 ± 0.8 µM. Also, in series [2] (Homo sapiens, MCF7, 48 h), the half-maximal inhibitory concentration (IC50) worked out at 5.3 ± 0.8 µM.

`CC(=O)OCC1OC(OCc2cn(CCCCSc3nc4sc5c(c4c(=O)n3N)CCC5)nn2)C(OC(C)=O)C(OC(C)=O)C1OC(C)=O` (stereo not drawn) [Compound 17] registered a melting point of 159 to 160 °C. For the same compound, half-maximal inhibition in series [3] (IC50) was put at 0.02 µM. Moreover, inhibition in series [1] was half-maximal at 8.4 ± 1.1 µM (IC50). The half-maximal inhibitory concentration (IC50) in series [2] was 5.2 ± 0.9 µM.
